Test results reported in patent US9643964B2, “3-(2-aminopyrimidin-4-yl)-5-(3-hydroxypropynyl)-1H-pyrrolo[2,3-C]pyridine derivatives as NIK inhibitors for the treatment of cancer” (Janssen Pharmaceutica NV, priority 2013, dated 2017).

Experiments:
[1] = molecular target: T1, Recombinant Human NF-kappaB-Inducing Kinase (NIK/MAP3K14) (Homo sapiens, UniProt Q99558); assay: Biological Assay A: inhibition of recombinant human NIK/MAP3K14 activity (MBP phosphorylation, Mesoscale); format: biochemical; settings: for IC50: averaged over all measurements on all batches, read-out: Biochemical (MSD MBP) IC50; for inhibition at 10 µM: read-out: Biochemical (MSD MBP) Max % Inhib @ 10 μM (Average)
Description: Inhibition of Recombinant Human NF-kappaB-Inducing Kinase (NIK/MAP3K14) Activity
Assay buffer was 50 mM Tris pH 7.5 containing 1 mM EGTA (ethylene glycol tetraacetic acid), 1 mM DTT (dithiothreitol), 0.1 mM Na3VO4, 5 mM MgCl2, 0.01% Tween 20. Assays were carried out in 384 well Mesoscale high binding plates which had been coated with myelin basic protein (MBP) and blocked with bovine serum albumin to prevent non-specific protein binding. All compounds tested were dissolved in dimethyl sulfoxide (DMSO) and further dilutions were made in assay buffer. Final DMSO concentration was 1% (v/v) in assays. Incubations consisted of compound (1% DMSO in control and blank wells), 25 μM Adenosine-5′-triphosphate (ATP), and 10 nM NIK/MAP3K14 substituting enzyme with buffer in the blank wells. Incubations were carried out for 1 h at 25° C. and were followed by washing and sequential incubation with rabbit anti-phospho-MBP and anti-rabbit Ig Sulfotag antibody before reading bound Sulfotag on a Mesoscale Discovery. Signal obtained in the wells containing blank samples was subtracted from all other wells and IC50's were determined by fitting a sigmoidal curve to % inhibition of control versus Log10 compound concentration.

[2] = molecular target: T1, Recombinant Human NF-kappaB-Inducing Kinase (NIK/MAP3K14); assay: Biological Assay A2: inhibition of auto-phosphorylation of recombinant human NIK/MAP3K14 (AlphaScreen); format: biochemical; settings: for IC50: auto-phosphorylation, averaged over all measurements on all batches, read-out: αscreen IC50; for inhibition at 10 µM: read-out: αscreen Max % Inhib @ 10 μM (Average)
Description: Inhibition of Auto-Phosphorylation of Recombinant Human NF-kappaB-Inducing Kinase (NIK/MAP3K14) Activity (AlphaScreen®)
NIK/MAP3K14 auto-phosphorylation activity was measured using the AlphaScreen® (αscreen) format (Perkin Elmer). All compounds tested were dissolved in dimethyl sulfoxide (DMSO) and further dilutions were made in assay buffer. Final DMSO concentration was 1% (v/v) in assays. Assay buffer was 50 mM Tris pH 7.5 containing 1 mM EGTA (ethylene glycol tetraacetic acid), 1 mM DTT (dithiothreitol), 0.1 mM Na3VO4, 5 mM MgCl2, 0.01% Tween 20. Assays were carried out in 384 well Alphaplates (Perkin Elmer). Incubations consisted of compound, 25 microM Adenosine-5′-triphosphate (ATP), and 0.2 nM NIK/MAP3K14. Incubations were initiated by addition of GST-tagged NIK/MAP3K14 enzyme, carried out for 1 h at 25° C. and terminated by addition of stop buffer containing anti-phospho-IKK Ser176/180 antibody. Protein A Acceptor and Glutathione-Donor beads were added before reading using an EnVision® Multilabel Plate Reader (Perkin Elmer). Signal obtained in the wells containing blank samples was subtracted from all other wells and IC50's were determined by fitting a sigmoidal curve to % inhibition of control versus Log10 compound concentration.

[3] = tested on: P-IKKα levels in L363 cells; assay: Biological Assay B: effect of compounds on P-IKKα levels in L363 cells; format: cell-based; settings: Homo sapiens, L-363, averaged values, read-out: IKKα Cellular IC50
Description: Effect of Compounds on P-IKKα Levels in L363 Cells
All compounds tested were dissolved in DMSO and further dilutions were made in culture medium. Final DMSO concentration was 1% (v/v) in cell assays. The human L363 cells (ATCC) were cultured in RPMI 1640 medium supplemented with GlutaMax and 10% fetal calf serum (PAA). Cells were routinely maintained at densities of 0.2×10^6 cells per ml-1×10^6 cells per ml at 37° C. in a humidified 5% CO2 atmosphere. Cells were passaged twice a week splitting back to obtain the low density. Cells were seeded in 96 well plates (Nunc 167008) at 2×10^6 per ml media in a volume of 75 μl per well plus 25 μl 1 μg/ml recombinant human B-cell activating factor BAFF/B1YS/TNFSF13B. Seeded cells were incubated at 37° C. in a humidified 5% CO2 atmosphere for 24 hr. Drugs and/or solvents were added (20 μl) to a final volume of 120 μl. Following 2 hr treatment plates were removed from the incubator and cell lysis was achieved by the addition of 30 μl 5× lysis buffer followed by shaking on a plate shaker at 4° C. for 10 min. At the end of this incubation lysed cells were centrifuged at 800×g for 20 min at 4° C. and the lysate was assessed for P-IKKα levels by sandwich immuno-assay carried out in anti-rabbit antibody coated Mesoscale plates. Within an experiment, the results for each treatment were the mean of 2 replicate wells. For initial screening purposes, compounds were tested using an 8 point dilution curve (serial 1:3 dilutions). For each experiment, controls (containing MG132 and BAFF but no test drug) and a blank incubation (containing MG132 and BAFF and 10 μM ADS125117, a test concentration known to give full inhibition) were run in parallel. The blank incubation value was subtracted from all control and sample values. To determine the IC50 a sigmoidal curve was fitted to the plot of % inhibition of control P-IKKα levels versus Log10 compound concentration.

[4] = tested on: JJN-3 cells; assay: Biological Assay C: antiproliferative activity on JJN-3 cells (CellTiter-Glo); format: cell-based, human; settings: 72 hr treatment, averaged values
Description: (§1) Determination of Antiproliferative Activity on LP-1, L-363 and JJN-3 Cells
(§2) All compounds tested were dissolved in DMSO and further dilutions were made in culture medium. Final DMSO concentration was 0.3% (v/v) in cell proliferation assays. Viability was assessed using CellTiter-Glo cell viability assay kit (Promega). The human LP-1, L-363 and JJN-3 cells (DSMZ) were cultured in RPMI 1640 medium supplemented with 2 mM L-glutamine, and 10% fetal calf serum (PAA). Cells were routinely kept as suspension cells at 37° C. in a humidified 5% CO2 atmosphere. Cells were passaged at a seeding density of 0.2×10^6/ml twice a week. Cells were seeded in black tissue culture treated 96-well plates (Perkin Elmer). Densities used for plating ranged from 2,000 to 6,000 cells per well in a total volume of 75 μl medium. After twenty four hours, drugs and/or solvents were added (25 μl) to a final volume of 100 μl. Following 72 hr of treatment plates were removed from the incubator and allowed to equilibrate to room temperature for approx 10 min. 100 μl CellTiter-Glo reagent was added to each well that was then covered (Perkin Elmer Topseal) and shaken on plate shaker for 10 min. Luminescence was measured on a HTS Topcount (Perkin Elmer). Within an experiment, the results for each treatment were the mean of 2 replicate wells. For initial screening purposes, compounds were tested using a 9 point dilution curve (serial 1:3 dilutions). For each experiment, controls (containing no drug) and a blank incubation (containing cells read at the time of compound addition) were run in parallel. The blank value was subtracted from all control and sample values. For each sample, the mean value for cell growth (in relative light units) was expressed as a percentage of the mean value for cell growth of the control.

[5] = tested on: L-363 cells; assay: Biological Assay C: antiproliferative activity on L-363 cells (CellTiter-Glo); format: cell-based, human; settings: 72 hr treatment, averaged values
Description: as §1, §2

[6] = tested on: LP-1 cells; assay: Biological Assay C: antiproliferative activity on LP-1 cells (CellTiter-Glo); format: cell-based, human; settings: 72 hr treatment, averaged values
Description: as §1, §2

T1 sequence (Q99558 whole entry): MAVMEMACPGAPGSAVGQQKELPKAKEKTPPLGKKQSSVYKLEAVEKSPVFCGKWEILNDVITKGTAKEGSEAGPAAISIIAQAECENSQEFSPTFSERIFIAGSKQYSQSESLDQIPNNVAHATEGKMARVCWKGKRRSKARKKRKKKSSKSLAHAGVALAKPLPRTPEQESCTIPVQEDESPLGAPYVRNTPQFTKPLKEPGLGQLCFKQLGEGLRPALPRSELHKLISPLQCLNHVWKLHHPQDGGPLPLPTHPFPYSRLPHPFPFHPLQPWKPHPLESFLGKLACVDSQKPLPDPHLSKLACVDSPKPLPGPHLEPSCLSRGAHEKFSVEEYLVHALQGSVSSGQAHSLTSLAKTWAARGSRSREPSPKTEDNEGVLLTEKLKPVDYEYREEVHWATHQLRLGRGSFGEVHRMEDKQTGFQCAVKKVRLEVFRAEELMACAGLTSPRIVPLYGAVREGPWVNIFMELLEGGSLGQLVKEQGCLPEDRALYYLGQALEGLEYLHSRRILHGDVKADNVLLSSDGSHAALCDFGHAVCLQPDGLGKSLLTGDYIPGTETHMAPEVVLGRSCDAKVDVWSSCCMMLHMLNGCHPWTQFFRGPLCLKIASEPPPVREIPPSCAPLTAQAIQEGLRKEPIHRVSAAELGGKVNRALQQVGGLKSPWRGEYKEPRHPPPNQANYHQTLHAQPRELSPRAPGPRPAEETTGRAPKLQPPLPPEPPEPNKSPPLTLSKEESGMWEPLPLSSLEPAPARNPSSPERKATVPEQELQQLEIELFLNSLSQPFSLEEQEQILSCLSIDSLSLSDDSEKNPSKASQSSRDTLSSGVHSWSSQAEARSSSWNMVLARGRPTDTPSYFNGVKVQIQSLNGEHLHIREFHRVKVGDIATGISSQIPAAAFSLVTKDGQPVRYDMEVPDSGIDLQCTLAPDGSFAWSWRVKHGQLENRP

| Compound | IC50 [1] [nM] | IC50 [2] [nM] | IC50 [3] [nM] | inhibition at 10 µM [1] [%] | inhibition at 10 µM [2] [%] | EC50 ([4]; Homo sapiens, JJN-3, 72 h) [nM] | EC50 ([5]; Homo sapiens, L-363, 72 h) [nM] | EC50 ([6]; Homo sapiens, LP-1, 72 h) [nM] | EC50 [4] [nM] | EC50 [5] [nM] | EC50 [6] [nM] |
| --- | --- | --- | --- | --- | --- | --- | --- | --- | --- | --- | --- |
| CN(C)C(=O)C(C)(O)C#Cc1cc2c(-c3ccnc(N)n3)cn(CC(C)(C)O)c2cn1 (stereo not shown) [Compound 63] | 600 | 780 |  |  |  |  |  |  |  |  |  |
| CCC(O)(C#Cc1cc2c(-c3ccnc(N)n3)cn(CCOC)c2cn1)CC [Compound 35] | 120 | 150 | 470 |  |  | 2000 | 3000 | 3800 |  |  |  |
| CC(C)(O)Cn1cc(-c2ccnc(N)n2)c2cc(C#CC(C)(O)C3(C)COC3)ncc21 (stereo not shown) [Compound 47] | 2900 | 9200 |  |  |  | > 10000 | > 10000 | > 10000 |  |  |  |
| CN1CC(n2cc(-c3ccnc(N)n3)c3cc(C#CC(C)(C)O)ncc32)C1 [Compound 34] | 76 | 42 | 160 |  |  | 330 | 240 | 4100 |  |  |  |
| CN1CC(n2cc(-c3nc(N)ncc3F)c3cc(C#CC(C)(O)C4CC4)nc(C4CC4)c32)C1 (stereo not shown) [Compound 102] |  | 900 | 32 |  |  | 35 | 21 | 65 |  |  |  |
| CC(C)n1cc(-c2ccnc(N)n2)c2cc(C#CCO)ncc21 [Compound 13] | 30 | 150 |  |  |  | 150 | 36 | 710 |  |  |  |
| COCCn1cc(-c2ccnc(N)n2)c2cc(C#CC3(O)CNC3)ncc21 [Compound 125] |  |  |  | 18 | 24 |  |  |  |  |  |  |
| CC(C)(O)C#Cc1cc2c(-c3nc(N)ncc3F)cn(CC3CCOCC3)c2cn1 [Compound 73] | 56 | 71 |  |  |  | 190 | 140 | 1600 |  |  |  |
| CC(C)(O)C#Cc1cc2c(-c3nc(N)ncc3F)cn(C3COC3)c2cn1 [Compound 74] | 17 | 43 |  |  |  | 76 | 45 | 1100 |  |  |  |
| CC(C)(O)Cn1cc(-c2ccnc(N)n2)c2cc(C#CCO)ncc21 [Compound 62] | 250 | 680 |  |  |  | 970 | 880 | 18000 |  |  |  |
| COCCC(C)(O)C#Cc1cc2c(-c3ccnc(N)n3)cn(CC(C)(C)O)c2cn1 (stereo not shown) [Compound 39] | 930 | 1600 |  |  |  |  |  |  |  |  |  |
| CC(C)(O)C#Cc1cc2c(-c3nc(N)ncc3C(F)(F)F)cn(CC3CCOCC3)c2cn1 [Compound 71] | 26 | 61 |  |  |  | 550 | 520 | 2600 |  |  |  |
| CC(O)(C#Cc1cc2c(-c3nc(N)ncc3F)cn(C3COC3)c2c(C2CC2)n1)C1CC1 (stereo not shown) [Compound 98] |  | 220 | 110 |  |  | 78 | 42 | 210 |  |  |  |
| COCCn1cc(-c2ccnc(N)n2)c2cc(C#CC(C)(O)C3CNC3)ncc21 (stereo not shown) [Compound 124] |  |  |  | 40 | 33 |  |  |  |  |  |  |
| COCCn1cc(-c2ccnc(N)n2)c2cc(C#CC3(O)CCN(C)CC3)ncc21 [Compound 123] |  |  |  | 23 | 27 |  |  |  |  |  |  |
| COCCCn1cc(-c2nc(N)ncc2F)c2cc(C#CC(C)(C)O)nc(Cl)c21 [Compound 92] |  | 47 |  |  |  | 54 | 32 | 86 |  |  |  |

Further lines, with some results ahead:

| IC50 [1] [nM] | IC50 [2] [nM] | IC50 [3] [nM] | inhibition at 10 µM [1] [%] | inhibition at 10 µM [2] [%] | Compound | EC50 ([4]; Homo sapiens, JJN-3, 72 h) [nM] | EC50 ([5]; Homo sapiens, L-363, 72 h) [nM] | EC50 ([6]; Homo sapiens, LP-1, 72 h) [nM] | EC50 [4] [nM] | EC50 [5] [nM] | EC50 [6] [nM] |
| --- | --- | --- | --- | --- | --- | --- | --- | --- | --- | --- | --- |
| 17 | 23 | 180 |  |  | CC(C)(O)C#Cc1cc2c(-c3ccnc(N)n3)cn(CCC#N)c2cn1 [Compound 57] | 1300 | 910 | 31000 |  |  |  |
| 5.2 | 29 | 20 |  |  | CC(C)(O)C#Cc1cc2c(-c3nc(N)ncc3F)cn(CC(C)(C)O)c2cn1 [Compound 64] | 81 | 51 | 2000 |  |  |  |
|  | 26 | 36 |  |  | CC(O)(C#Cc1cc2c(-c3nc(N)ncc3F)cn(C3COC3)c2cn1)C1CC1 (single isomer, unassigned) [Compound 122] |  |  |  | 100 | 69 | 310 |
| 6.3 | 38 |  |  |  | CC(C)(O)C#Cc1cc2c(-c3nc(N)ncc3C(F)(F)F)cn(CC(C)(C)O)c2cn1 [Compound 72] | 320 | 190 | 7200 |  |  |  |
|  | 21 | 70 |  |  | CC(O)(C#Cc1cc2c(-c3nc(N)ncc3F)cn(C3COC3)c2cn1)C1CC1 (stereo not shown) [Compound 97] | 170 | 100 | 1200 |  |  |  |
|  | 17 | 20 |  |  | COCCCn1cc(-c2nc(N)ncc2F)c2cc(C#CC(C)(O)C3CC3)ncc21 (single isomer, unassigned) [Compound 120] |  |  |  | 95 | 74 | 200 |
|  | 13 | 49 |  |  | CN(C)C(=O)n1cc(-c2nc(N)ncc2F)c2cc(C#CC(C)(O)C3CC3)ncc21 (stereo not shown) [Compound 103] | 91 | 48 | 680 |  |  |  |
|  | 40 |  |  |  | CC(O)(C#Cc1cc2c(-c3nc(N)ncc3F)cn(C3CN(C4CC4)C3)c2cn1)CF (stereo not shown) [Compound 161] | 150 | 110 | 340 |  |  |  |
|  | 16 | 12 |  |  | COCCCn1cc(-c2nc(N)ncc2F)c2cc(C#CC(C)(C)O)ncc21 [Compound 76] | 140 | 110 | 300 |  |  |  |
